Measurements reported in ChEMBL document CHEMBL4507270 (2021).

Assays:
[1] = molecular target: Dual specificity protein kinase CLK4 (Homo sapiens) (UniProt Q9HAZ1)
[2] = tested on: Fibroblast growth factor receptor 3 (Homo sapiens), P22607 [G697C]
[3] = molecular target: GABA-A receptor; anion channel (Rattus norvegicus) (UniProt O09028+P15431+P18506+P18508+P19969+P20236+P23574+P23576+P28471+P28473+P30191+P62813+P63079+P63138+Q91ZM7+Q9ES14); details: Compound concentration 10.0 uM
[4] = molecular target: Ankyrin repeat and protein kinase domain-containing protein 1 (Homo sapiens) (UniProt Q8NFD2)
[5] = molecular target: Cyclin-dependent kinase-like 3 (Homo sapiens) (UniProt Q8IVW4)
[6] = molecular target: Glycogen synthase kinase-3 beta (Homo sapiens) (UniProt P49841)
[7] = molecular target: Muscarinic acetylcholine receptor M3 (Homo sapiens) (UniProt P20309); details: Compound concentration 10.0 uM
[8] = molecular target: Ribosomal protein S6 kinase alpha-2 (Homo sapiens) (UniProt Q15349)
[9] = molecular target: Serine/threonine-protein kinase tousled-like 2 (Homo sapiens) (UniProt Q86UE8)
[10] = molecular target: Mitogen-activated protein kinase kinase kinase 3 (Homo sapiens) (UniProt Q99759)
[11] = molecular target: Alpha-2B adrenergic receptor (Homo sapiens) (UniProt P18089); details: Compound concentration 10.0 uM
[12] = molecular target: 3-phosphoinositide-dependent protein kinase 1 (Homo sapiens) (UniProt O15530)
[13] = molecular target: Ephrin type-A receptor 3 (Homo sapiens) (UniProt P29320)
[14] = molecular target: Casein kinase II subunit alpha' (Homo sapiens) (UniProt P19784)
Sequence of Casein kinase II subunit alpha' (Homo sapiens) (P19784 whole entry, looked up): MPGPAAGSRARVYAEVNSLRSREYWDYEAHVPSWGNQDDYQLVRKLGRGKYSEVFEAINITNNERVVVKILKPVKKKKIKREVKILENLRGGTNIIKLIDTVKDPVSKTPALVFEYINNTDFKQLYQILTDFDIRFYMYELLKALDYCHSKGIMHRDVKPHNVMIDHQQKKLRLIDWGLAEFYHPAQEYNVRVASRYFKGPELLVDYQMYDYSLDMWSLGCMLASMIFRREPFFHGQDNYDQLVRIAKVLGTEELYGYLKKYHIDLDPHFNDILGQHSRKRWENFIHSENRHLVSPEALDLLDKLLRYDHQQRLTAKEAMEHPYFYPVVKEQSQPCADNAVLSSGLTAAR

[15] = molecular target: Serine/threonine-protein kinase 32C (Homo sapiens) (UniProt Q86UX6)
[16] = molecular target: Dual specificity mitogen-activated protein kinase kinase 1 (Homo sapiens) (UniProt Q02750)
[17] = molecular target: 5'-AMP-activated protein kinase catalytic subunit alpha-2 (Homo sapiens) (UniProt P54646)
Sequence of 5'-AMP-activated protein kinase catalytic subunit alpha-2 (Homo sapiens) (P54646 whole entry, looked up): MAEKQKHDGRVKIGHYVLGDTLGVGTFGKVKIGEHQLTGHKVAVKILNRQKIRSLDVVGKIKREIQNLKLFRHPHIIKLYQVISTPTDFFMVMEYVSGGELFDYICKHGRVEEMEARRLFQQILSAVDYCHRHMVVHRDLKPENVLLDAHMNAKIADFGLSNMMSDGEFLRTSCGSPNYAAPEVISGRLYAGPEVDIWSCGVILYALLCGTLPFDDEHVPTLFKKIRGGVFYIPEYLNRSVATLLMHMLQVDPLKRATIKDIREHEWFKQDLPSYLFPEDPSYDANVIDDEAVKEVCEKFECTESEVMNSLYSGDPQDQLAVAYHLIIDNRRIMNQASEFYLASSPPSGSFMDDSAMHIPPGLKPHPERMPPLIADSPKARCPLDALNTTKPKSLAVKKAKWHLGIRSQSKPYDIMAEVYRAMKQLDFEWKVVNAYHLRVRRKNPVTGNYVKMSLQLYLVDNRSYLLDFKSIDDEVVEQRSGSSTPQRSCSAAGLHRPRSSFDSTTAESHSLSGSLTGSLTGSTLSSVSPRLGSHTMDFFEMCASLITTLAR

[18] = molecular target: Interleukin-1 receptor-associated kinase 1 (Homo sapiens) (UniProt P51617)
[19] = molecular target: Mitogen-activated protein kinase kinase kinase 12 (Homo sapiens) (UniProt Q12852)
[20] = molecular target: Phosphatidylinositol 4,5-bisphosphate 3-kinase catalytic subunit beta isoform (Homo sapiens) (UniProt P42338)
Sequence of Phosphatidylinositol 4,5-bisphosphate 3-kinase catalytic subunit beta isoform (Homo sapiens) (P42338 whole entry, looked up, canonical isoform): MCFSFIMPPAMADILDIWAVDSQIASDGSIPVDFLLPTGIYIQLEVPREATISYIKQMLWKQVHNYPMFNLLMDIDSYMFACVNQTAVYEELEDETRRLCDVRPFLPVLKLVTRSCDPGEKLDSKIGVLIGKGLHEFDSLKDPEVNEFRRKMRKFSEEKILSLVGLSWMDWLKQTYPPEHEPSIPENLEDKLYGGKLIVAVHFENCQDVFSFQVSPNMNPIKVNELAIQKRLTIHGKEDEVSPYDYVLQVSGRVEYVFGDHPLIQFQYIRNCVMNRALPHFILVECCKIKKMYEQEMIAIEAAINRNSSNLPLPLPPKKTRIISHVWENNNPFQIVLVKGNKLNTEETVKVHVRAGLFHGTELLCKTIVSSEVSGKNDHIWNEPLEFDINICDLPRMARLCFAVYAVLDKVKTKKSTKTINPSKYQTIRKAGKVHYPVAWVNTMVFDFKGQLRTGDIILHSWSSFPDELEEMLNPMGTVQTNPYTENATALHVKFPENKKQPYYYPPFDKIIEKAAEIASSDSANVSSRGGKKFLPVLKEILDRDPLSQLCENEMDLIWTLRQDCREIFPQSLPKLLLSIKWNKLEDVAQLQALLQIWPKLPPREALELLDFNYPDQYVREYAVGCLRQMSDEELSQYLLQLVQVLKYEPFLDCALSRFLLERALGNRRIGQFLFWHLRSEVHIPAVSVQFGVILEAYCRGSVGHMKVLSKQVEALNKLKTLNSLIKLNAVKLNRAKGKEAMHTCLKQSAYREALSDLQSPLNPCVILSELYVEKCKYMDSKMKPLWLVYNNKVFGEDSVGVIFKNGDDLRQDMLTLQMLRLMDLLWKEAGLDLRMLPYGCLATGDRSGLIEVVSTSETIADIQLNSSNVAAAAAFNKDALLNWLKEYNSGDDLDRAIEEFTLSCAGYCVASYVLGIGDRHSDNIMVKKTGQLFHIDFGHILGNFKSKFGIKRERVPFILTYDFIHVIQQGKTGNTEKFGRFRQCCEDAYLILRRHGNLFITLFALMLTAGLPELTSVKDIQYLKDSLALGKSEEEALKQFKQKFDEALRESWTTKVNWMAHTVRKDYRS

[21] = molecular target: Serine/threonine-protein kinase PAK 6 (Homo sapiens) (UniProt Q9NQU5)
[22] = molecular target: Receptor-interacting serine/threonine-protein kinase 1 (Homo sapiens) (UniProt Q13546)
[23] = molecular target: Cyclin-dependent kinase 13 (Homo sapiens) (UniProt Q14004)
[24] = tested on: Phosphatidylinositol 4,5-bisphosphate 3-kinase catalytic subunit alpha isoform (Homo sapiens), P42336 [Q546K]
[25] = molecular target: Rhodopsin kinase GRK1 (Homo sapiens) (UniProt Q15835)
[26] = tested on: Mast/stem cell growth factor receptor Kit (Homo sapiens), P10721 [V559D,T670I]
[27] = molecular target: Bone morphogenetic protein receptor type-1A (Homo sapiens) (UniProt P36894)
[28] = molecular target: Ephrin type-B receptor 2 (Homo sapiens) (UniProt P29323)
[29] = molecular target: RAC-gamma serine/threonine-protein kinase (Homo sapiens) (UniProt Q9Y243)
[30] = molecular target: Serine/threonine-protein kinase pim-1 (Homo sapiens) (UniProt P11309)
[31] = molecular target: Vascular endothelial growth factor receptor 1 (Homo sapiens) (UniProt P17948)
[32] = molecular target: Serine/threonine-protein kinase 17A (Homo sapiens) (UniProt Q9UEE5)
[33] = molecular target: Ribosomal protein S6 kinase alpha-6 (Homo sapiens) (UniProt Q9UK32)
[34] = molecular target: Serine/threonine-protein kinase WNK3 (Homo sapiens) (UniProt Q9BYP7)
[35] = molecular target: Serine/threonine-protein kinase NLK (Homo sapiens) (UniProt Q9UBE8)
Sequence of Serine/threonine-protein kinase NLK (Homo sapiens) (Q9UBE8 whole entry): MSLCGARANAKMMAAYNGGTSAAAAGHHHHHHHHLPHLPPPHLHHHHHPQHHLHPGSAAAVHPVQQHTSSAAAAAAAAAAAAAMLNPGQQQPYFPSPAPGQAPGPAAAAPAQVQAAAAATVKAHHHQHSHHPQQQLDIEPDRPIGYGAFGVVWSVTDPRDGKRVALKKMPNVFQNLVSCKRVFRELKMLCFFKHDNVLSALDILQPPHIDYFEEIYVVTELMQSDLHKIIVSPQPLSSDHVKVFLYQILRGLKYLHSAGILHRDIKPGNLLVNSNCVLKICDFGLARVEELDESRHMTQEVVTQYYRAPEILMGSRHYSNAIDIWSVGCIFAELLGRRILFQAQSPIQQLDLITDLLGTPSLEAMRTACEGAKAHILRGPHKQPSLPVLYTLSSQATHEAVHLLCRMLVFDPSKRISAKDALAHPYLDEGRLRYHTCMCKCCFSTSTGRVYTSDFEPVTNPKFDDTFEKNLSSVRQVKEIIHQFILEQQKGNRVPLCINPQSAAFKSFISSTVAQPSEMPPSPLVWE

[36] = molecular target: BMP-2-inducible protein kinase (Homo sapiens) (UniProt Q9NSY1)
[37] = tested on: Epidermal growth factor receptor (Homo sapiens), P00533 [UNDEFINED MUTATION]
Sequence of Epidermal growth factor receptor (Homo sapiens), P00533 [UNDEFINED MUTATION] (P00533 whole entry, looked up, change not shown): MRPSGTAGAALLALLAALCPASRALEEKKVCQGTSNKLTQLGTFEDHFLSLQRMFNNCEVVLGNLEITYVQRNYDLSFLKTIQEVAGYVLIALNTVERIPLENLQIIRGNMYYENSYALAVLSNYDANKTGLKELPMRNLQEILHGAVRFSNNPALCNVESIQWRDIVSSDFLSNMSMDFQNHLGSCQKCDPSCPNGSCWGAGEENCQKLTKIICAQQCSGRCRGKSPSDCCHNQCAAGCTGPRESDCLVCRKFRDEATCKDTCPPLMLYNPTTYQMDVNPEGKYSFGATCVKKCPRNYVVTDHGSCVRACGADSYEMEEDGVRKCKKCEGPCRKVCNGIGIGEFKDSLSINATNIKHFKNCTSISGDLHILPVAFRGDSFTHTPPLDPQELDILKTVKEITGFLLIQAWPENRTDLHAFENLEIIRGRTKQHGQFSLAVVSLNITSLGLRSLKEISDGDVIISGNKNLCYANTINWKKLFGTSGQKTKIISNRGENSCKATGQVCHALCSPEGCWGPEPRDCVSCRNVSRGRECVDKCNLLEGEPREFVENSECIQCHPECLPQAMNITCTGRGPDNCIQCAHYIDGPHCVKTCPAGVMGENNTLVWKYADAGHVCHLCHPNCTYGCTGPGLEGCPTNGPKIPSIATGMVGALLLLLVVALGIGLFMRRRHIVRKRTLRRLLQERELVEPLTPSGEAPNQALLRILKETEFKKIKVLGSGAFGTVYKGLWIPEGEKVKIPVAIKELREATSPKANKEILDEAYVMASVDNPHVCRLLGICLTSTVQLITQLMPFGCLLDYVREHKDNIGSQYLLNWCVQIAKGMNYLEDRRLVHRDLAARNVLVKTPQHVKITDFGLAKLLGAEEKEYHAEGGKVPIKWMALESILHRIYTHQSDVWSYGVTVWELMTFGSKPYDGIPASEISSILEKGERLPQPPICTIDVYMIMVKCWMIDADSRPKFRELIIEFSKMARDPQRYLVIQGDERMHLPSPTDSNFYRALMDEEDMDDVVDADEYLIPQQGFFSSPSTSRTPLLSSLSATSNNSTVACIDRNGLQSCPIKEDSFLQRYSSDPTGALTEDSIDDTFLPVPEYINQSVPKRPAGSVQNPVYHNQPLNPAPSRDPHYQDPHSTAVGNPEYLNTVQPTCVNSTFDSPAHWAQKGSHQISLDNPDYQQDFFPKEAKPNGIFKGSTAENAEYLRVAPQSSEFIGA

[38] = tested on: Epidermal growth factor receptor (Homo sapiens), P00533 [UNDEFINED MUTATION]; remark: listed apart in the source
[39] = molecular target: Mitogen-activated protein kinase 1 (Homo sapiens) (UniProt P28482)
[40] = molecular target: Beta-1 adrenergic receptor (Homo sapiens) (UniProt P08588); details: Compound concentration 10.0 uM
Sequence of Beta-1 adrenergic receptor (Homo sapiens) (P08588 whole entry, looked up): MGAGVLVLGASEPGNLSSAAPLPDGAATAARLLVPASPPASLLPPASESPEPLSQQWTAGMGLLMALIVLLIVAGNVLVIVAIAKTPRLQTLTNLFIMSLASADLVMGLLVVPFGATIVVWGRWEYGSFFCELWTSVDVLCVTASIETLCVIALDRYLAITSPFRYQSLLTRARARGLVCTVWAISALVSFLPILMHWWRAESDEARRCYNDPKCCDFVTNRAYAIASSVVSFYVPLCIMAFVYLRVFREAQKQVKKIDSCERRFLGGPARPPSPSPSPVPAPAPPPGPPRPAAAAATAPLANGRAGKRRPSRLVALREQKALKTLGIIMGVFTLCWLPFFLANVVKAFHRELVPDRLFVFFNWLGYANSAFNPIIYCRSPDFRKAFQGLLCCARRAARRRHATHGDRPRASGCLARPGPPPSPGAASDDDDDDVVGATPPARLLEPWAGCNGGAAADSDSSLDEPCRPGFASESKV

[41] = molecular target: Inhibitor of nuclear factor kappa-B kinase subunit epsilon (Homo sapiens) (UniProt Q14164)
[42] = molecular target: Serine/threonine-protein kinase RIO3 (Homo sapiens) (UniProt O14730)
[43] = molecular target: Serine/threonine-protein kinase PAK 5 (Homo sapiens) (UniProt Q9P286)
[44] = Compound concentration 1000.0 nM
[45] = Compound concentration 100.0 nM

Sequence of Fibroblast growth factor receptor 3 (Homo sapiens), P22607 [G697C] (P22607 whole entry G697C): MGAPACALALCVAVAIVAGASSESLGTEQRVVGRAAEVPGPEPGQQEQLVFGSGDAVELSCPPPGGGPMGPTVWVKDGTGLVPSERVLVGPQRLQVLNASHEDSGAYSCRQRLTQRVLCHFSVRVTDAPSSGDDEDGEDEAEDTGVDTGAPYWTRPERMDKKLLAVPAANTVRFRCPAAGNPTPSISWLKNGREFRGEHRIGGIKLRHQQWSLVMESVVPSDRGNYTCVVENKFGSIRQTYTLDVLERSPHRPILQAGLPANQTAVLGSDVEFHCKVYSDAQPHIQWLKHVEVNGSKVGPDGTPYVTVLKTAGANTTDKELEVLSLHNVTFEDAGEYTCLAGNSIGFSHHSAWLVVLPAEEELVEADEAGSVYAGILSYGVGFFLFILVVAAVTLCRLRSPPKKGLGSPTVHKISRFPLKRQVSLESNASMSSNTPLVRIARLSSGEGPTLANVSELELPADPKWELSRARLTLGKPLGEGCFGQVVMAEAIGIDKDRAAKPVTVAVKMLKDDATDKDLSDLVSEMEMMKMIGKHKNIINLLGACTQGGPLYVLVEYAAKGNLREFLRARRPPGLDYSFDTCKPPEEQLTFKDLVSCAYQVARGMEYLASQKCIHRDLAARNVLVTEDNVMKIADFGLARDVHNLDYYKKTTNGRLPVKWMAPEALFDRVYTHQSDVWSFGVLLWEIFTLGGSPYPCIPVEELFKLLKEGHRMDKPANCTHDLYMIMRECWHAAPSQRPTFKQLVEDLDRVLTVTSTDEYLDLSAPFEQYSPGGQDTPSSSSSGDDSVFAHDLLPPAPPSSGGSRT

Cc1cc(NC(=O)c2cccc(S(F)(F)(F)(F)F)c2)cc(-n2ccn3nc(-c4cccnc4)cc23)c1 [BAY-309]
inactive: residual activity [1, 44] 100% | residual activity [2, 44] 100% | inhibition [3] -4.43% | residual activity [4, 44] 100% | residual activity [5, 44] 100% | residual activity [6, 44] 85.4% | inhibition [7] 16.3% | residual activity [8, 44] 100% | residual activity [9, 44] 94.3% | residual activity [10, 44] 87.9% | inhibition [11] 11.9% | residual activity [12, 44] 92% | residual activity [13, 44] 100% | residual activity [14, 44] 100% | residual activity [15, 44] 75.8% | residual activity [16, 44] 100% | residual activity [17, 44] 100% | residual activity [18, 44] 96% | residual activity [19, 44] 67.7% | residual activity [20, 44] 100% | residual activity [21, 44] 100% | residual activity [22, 44] 80.7% | residual activity [23, 44] 64.2% | residual activity [24, 44] 100% | residual activity [25, 44] 50.4% | residual activity [26, 44] 91.3% | residual activity [27, 44] 94.4% | residual activity [28, 44] 100% | residual activity [29, 44] 100% | residual activity [30, 44] 95.6% | residual activity [31, 44] 100% | residual activity [32, 44] 100% | residual activity [33, 44] 100% | residual activity [34, 44] 100% | residual activity [35, 44] 100% | residual activity [36, 44] 65.9% | residual activity [37, 44] 100% | residual activity [38, 44] 98.7% | residual activity [39, 44] 61.7% | inhibition [40] -7.94% | residual activity [41, 44] 100% | residual activity [42, 44] 85.9% | residual activity [43, 44] 100%

Cc1cc(C)c(-n2ccn3nc(-c4cccnc4)cc23)cc1NC(=O)c1cc(C#N)cc(S(F)(F)(F)(F)F)c1 [BAY-826]
inactive: residual activity [1, 45] 93.3% | residual activity [2, 45] 100% | inhibition [3] -6.93% | residual activity [4, 45] 84.5% | residual activity [5, 45] 81.2% | residual activity [6, 45] 85.9% | inhibition [7] 10.5% | residual activity [8, 45] 65.1% | residual activity [9, 45] 100% | residual activity [10, 45] 67.3% | inhibition [11] 18.1% | residual activity [12, 45] 100% | residual activity [13, 45] 89.8% | residual activity [14, 45] 82.4% | residual activity [15, 45] 83.4% | residual activity [16, 45] 76.2% | residual activity [17, 45] 82.7% | residual activity [18, 45] 87.3% | residual activity [19, 45] 82.5% | residual activity [20, 45] 89.1% | residual activity [21, 45] 70.1% | residual activity [22, 45] 91.5% | residual activity [23, 45] 59% | residual activity [24, 45] 100% | residual activity [25, 45] 71.2% | residual activity [26, 45] 67.9% | residual activity [27, 45] 97.2% | residual activity [28, 45] 71.4% | residual activity [29, 45] 95.6% | residual activity [30, 45] 92% | residual activity [31, 45] 91.5% | residual activity [32, 45] 100% | residual activity [33, 45] 74.9% | residual activity [34, 45] 61.9% | residual activity [35, 45] 100% | residual activity [36, 45] 94.7% | residual activity [37, 45] 72.9% | residual activity [38, 45] 78.7% | residual activity [39, 45] 88.1% | inhibition [40] 9.41% | residual activity [41, 45] 59.9% | residual activity [42, 45] 100% | residual activity [43, 45] 83.5%
